The source of these data is patent US20240327359A1, “3-ISOXAZOLIDINONE COMPOUND, PREPARATION METHOD, HERBICIDAL COMPOSITION AND APPLICATION THEREOF” (QINGDAO KINGAGROOT CHEMICAL COMPOUND CO., LTD., priority 2021, published 2024).

The assay has as its system weeds. Nature of the assay: Activity test of the compositions, soil sealing treatment. It is filed as in vivo. The note with it: for pest or weed control at 6 g/ha: B 0.4 g a.i./mu; for pest or weed control at 12 g/ha: B 0.8 g a.i./mu. As for the experimental part: The desired active ingredient B was purchased from a reagent company or synthesized by a known method. The technical materials were all dissolved in acetone and diluted with an aqueous solution containing 0.10% emulsifier Tween-80 which were to be used immediately after dilution.
Weeds are cultivated in a controllable sunlight greenhouse at 20 to 30° C., in natural light, and with relative humidity of 57% to 72%. […] The test soil was filled quantitatively to ¾ of the pots and then watered from the bottom of the pots to completely wet the soil to saturation. The test weed seeds were accelerated to just germinate, and then evenly and quantitatively sowed on the surface, then covered with 0.5-1 cm soil according to the seed size, and ready for use 72 hours after sowing.
Each treatment was repeated 4 times. Four pots with 20 weed seeds per pot were treated each time.
The well-sowed test materials were evenly placed on a platform with an area of 0.5 m^2, and solution of agents was sprayed on the soil by the 3WP-2000-type walking spray tower at a dosage of 450 kg/ha and at a spray pressure of 0.3 MPa. After all the solution was sprayed, the valve was closed. After 30 seconds, the door of the spray tower was opened, and the nutritional bowl was taken out. Then the valve was opened, and the spray tube was cleaned by spraying 50 ml of water.
A method for investigating absolute numbers was employed. Whole seedlings of survival weeds were cut off with a blade along the soil surface, and the fresh weight of the weeds was weighed with an analytical balance. For dead weeds, the fresh weight thereof was zero.
The investigation was performed 21 days after the treatment for only once in total.

Where [1] appears, read: Echinochloa crus-galli, Echinochloa crusgalli, soil (S), B 0.5 g a.i./mu, read-out: Control effect (%) of B applied alone (B).
Setting [2] is: Echinochloa crus-galli, Echinochloa crusgalli, soil (S), B 1 g a.i./mu, read-out: Control effect (%) of B applied alone (B).
Setting [3] is: Echinochloa crus-galli, Echinochloa crusgalli, soil (S), B 2 g a.i./mu, read-out: Control effect (%) of B applied alone (B).
The mark [4] stands for this setting: Echinochloa crus-galli, Echinochloa crusgalli, soil (S), read-out: Control effect (%) of B applied alone (B).
[5] abbreviates: Lolium multiflorum, soil (S), B 20 g a.i./mu, read-out: Control effect (%) of B applied alone (B).
The mark [6] stands for this setting: Lolium multiflorum, soil (S), B 40 g a.i./mu, read-out: Control effect (%) of B applied alone (B).
Setting [7] is: Lolium multiflorum, soil, read-out: Control effect (%) of B applied alone (B).
Where [8] appears, read: Echinochloa crus-galli, soil, read-out: Control effect (%) of B applied alone (B).
Setting [9] is: Cyperus difformis, soil (S), B 0.5 g a.i./mu, read-out: Control effect (%) of B applied alone (B).
[10] abbreviates: Echinochloa crusgalli, soil (S), B 2 g a.i./mu.
[11] abbreviates: Echinochloa crusgalli, soil (S), B 4 g a.i./mu.
The mark [12] stands for this setting: Echinochloa crus-galli, Echinochloa crusgalli, soil (S), B 16 g a.i./mu, read-out: Control effect (%) of B applied alone (B).
[13] abbreviates: Echinochloa crus-galli, Echinochloa crusgalli, soil (S), B 32 g a.i./mu, read-out: Control effect (%) of B applied alone (B).
The mark [14] stands for this setting: Echinochloa crus-galli, Echinochloa crusgalli, soil (S), B 6 g a.i./mu, read-out: Control effect (%) of B applied alone (B).
The mark [15] stands for this setting: Echinochloa crus-galli, Echinochloa crusgalli, soil (S), B 12 g a.i./mu, read-out: Control effect (%) of B applied alone (B).
The mark [16] stands for this setting: Lolium multiflorum, soil (S), read-out: Control effect (%) of B applied alone (B).

Where two headings read alike, the source gives them in different places.

On to `COC(=O)[C@@H](C)O/N=C/c1cc(-n2c(=O)cc(C(F)(F)F)n(C)c2=O)c(F)cc1Cl`, for which the pest or weed control at 7.5 g/ha under setting [1] came out at 31.5%. Under setting [2], the pest or weed control at 15 g/ha turned out to be 42.3%.
Regarding `COC(=O)C12ON=C(c3cc(-n4c(=O)cc(C(F)(F)F)n(C)c4=O)c(F)cc3Cl)C1CCC2C` (stereo not shown), under setting [2], the pest or weed control at 15 g/ha was 40.2%. In addition, the pest or weed control at 30 g/ha under setting [3] came to 53.1%.
For `Cc1ccccc1CO[C@@H]1C[C@@]2(C(C)C)CC[C@]1(C)O2` (racemic) [cinmethylin], under setting [4], the pest or weed control at 6 g/ha was 26.4% and the pest or weed control at 12 g/ha came to 38.6%.
Take `CC(C)CCCCCOC(=O)COc1ccc(Cl)cc1Cl` [2,4-D isooctyl ester]: the “Control effect (%) of B applied alone (B)” value (“Control effect (%)” below) came to 33.6% (Veronica didyma, soil (S), B 6 g a.i./mu) and 42.5% (Veronica didyma, soil (S), B 12 g a.i./mu).
Turning to `CCOCN(C(=O)CCl)c1c(C)cccc1CC` [acetochlor], the pest or weed control at 180 g/ha (Lolium multiflorum, soil (S), B 12 g a.i./mu, read-out: Control effect (%) of B applied alone (B)) turned out to be 36.5%. Moreover, the pest or weed control at 360 g/ha (Lolium multiflorum, soil (S), B 24 g a.i./mu, read-out: Control effect (%) of B applied alone (B)) was found to be 45.7%.
Consider `Nc1c([N+](=O)[O-])ccc(Oc2ccccc2)c1Cl` [aclonifen], for which the pest or weed control at 300 g/ha under setting [5] was determined as 31.6%. Besides, under setting [6], the pest or weed control at 600 g/ha is 52.1%.
On to `CCNc1nc(NC(C)C)nc(SC)n1` [ametryne], for which, under setting [7], the pest or weed control at 300 g/ha was found to be 18.1% and the pest or weed control at 600 g/ha turned out to be 31.6%.
On to `COP(=S)(OC)SCC(=O)N(c1ccc(Cl)cc1)C(C)(C)C` [anilofos], for which, under setting [8], the pest or weed control at 30 g/ha was found to be 23.1% and the pest or weed control at 60 g/ha was found to be 32.6%.
Take `CCNc1nc(Cl)nc(NC(C)C)n1` [atrazine]: the pest or weed control at 300 g/ha under setting [5] turned out to be 18.9%. The pest or weed control at 600 g/ha under setting [6] was found to be 36.6%.
`CCC(Oc1ccc(F)c(C(F)(F)F)c1)C(=O)NCc1ccccc1` (stereo not shown) [beflubutamid]: the “Control effect (%)” value stood at 42.6% (Veronica didyma, soil (S), B 1 g a.i./mu) and 57.9% (Veronica didyma, soil (S), B 2 g a.i./mu).
In the case of `COC(=O)c1ccccc1CS(=O)(=O)NC(=O)Nc1nc(OC)cc(OC)n1` [bensulfuron-methyl], the pest or weed control at 7.5 g/ha under setting [9] is 42.6%. Besides, the pest or weed control at 15 g/ha (Cyperus difformis, soil (S), B 1 g a.i./mu, read-out: Control effect (%) of B applied alone (B)) turned out to be 55.8%.
In the case of `CS(=O)(=O)c1ccc(C(=O)C2=C(Sc3ccccc3)C3CCC(C3)C2=O)c(Cl)c1` (stereo not shown) [benzobicyclon], the “Control effect (%)” value runs as follows: under setting [10], 22.6%; under setting [11], 42.8%.
In the case of `CC(C)(NC(=O)C(Br)C(C)(C)C)c1ccccc1` (stereo not shown) [bromobutide], under setting [12], the pest or weed control at 240 g/ha came out at 37.3%. The pest or weed control at 480 g/ha under setting [13] worked out at 53.6%.
Regarding `CCCCOCN(C(=O)CCl)c1c(CC)cccc1CC` [butachlor], the pest or weed control at 240 g/ha (Lolium multiflorum, soil (S), B 16 g a.i./mu, read-out: Control effect (%) of B applied alone (B)) is 28.8%. Moreover, the pest or weed control at 480 g/ha (Lolium multiflorum, soil (S), B 32 g a.i./mu, read-out: Control effect (%) of B applied alone (B)) is 46.4%.
As to `CCC(C)Nc1c([N+](=O)[O-])cc(C(C)(C)C)cc1[N+](=O)[O-]` (stereo not shown) [butralin], under setting [7], the pest or weed control at 240 g/ha was determined as 19.5% and the pest or weed control at 480 g/ha stood at 35.8%.
As for `Cc1ccc(NC(=O)N(C)C)cc1Cl` [chlorotoluron], the pest or weed control at 225 g/ha (Alopecurus japonicus, soil (S), B 15 g a.i./mu, read-out: Control effect (%) of B applied alone (B)) came out at 34.2%. Further, for the setting “Alopecurus japonicus, soil (S), B 30 g a.i./mu, read-out: Control effect (%) of B applied alone (B)”, the pest or weed control at 450 g/ha was determined as 58.3%.
Take `O=C(Nc1ccc(F)cc1F)c1cccnc1Oc1cccc(C(F)(F)F)c1` [diflufenican]: the pest or weed control at 15 g/ha (Lolium multiflorum, soil (S), B 1 g a.i./mu, read-out: Control effect (%) of B applied alone (B)) was 37.1%. For the same molecule, the pest or weed control at 30 g/ha (Lolium multiflorum, soil (S), B 2 g a.i./mu, read-out: Control effect (%) of B applied alone (B)) worked out at 52.4%.
Turning to `COC[C@H](C)N(C(=O)CCl)c1c(C)csc1C` [dimethenamid-P], the “Control effect (%)” value is, setting by setting: under setting [11], 34.2%; (Echinochloa crusgalli, soil (S), B 8 g a.i./mu) 47.5%.
On to `COCC(C)N(C(=O)CCl)c1c(C)csc1C` (stereo not shown) [dimethenamid], for which the pest or weed control at 90 g/ha under setting [14] turned out to be 31.5%. Besides, under setting [15], the pest or weed control at 180 g/ha worked out at 43.7%.
On to `CSC(=O)c1c(C(F)F)nc(C(F)(F)F)c(C(=O)SC)c1CC(C)C` [dithiopyr], for which the pest or weed control at 60 g/ha (Echinochloa crus-galli, Echinochloa crusgalli, soil (S), B 4 g a.i./mu, read-out: Control effect (%) of B applied alone (B)) is 40.1%. Besides, for the setting “Echinochloa crus-galli, Echinochloa crusgalli, soil (S), B 8 g a.i./mu, read-out: Control effect (%) of B applied alone (B)”, the pest or weed control at 120 g/ha is 53.2%.
As for `CN(C)C(=O)Nc1ccc(Cl)c(Cl)c1` [diuron], under setting [7], the pest or weed control at 600 g/ha was 39.4% and the pest or weed control at 1200 g/ha turned out to be 65.3%.
For `CCOC(=O)COc1ncccc1Oc1cc(-n2c(=O)cc(C(F)(F)F)n(C)c2=O)c(F)cc1Cl` [epyrifenacil], the “Control effect (%)” value was determined as 36.9% (Amaranthus retroflexus, soil (S), B 0.5 g a.i./mu) and 47.1% (Amaranthus retroflexus, soil (S), B 1 g a.i./mu).
For `CCOc1ccccc1OS(=O)(=O)NC(=O)Nc1nc(OC)cc(OC)n1` [ethoxysulfuron], the pest or weed control at 3.75 g/ha (Cyperus difformis, soil (S), B 0.25 g a.i./mu, read-out: Control effect (%) of B applied alone (B)) amounted to 44.6%. The pest or weed control at 7.5 g/ha under setting [9] turned out to be 58.4%.
On to `COc1ccc(-n2c(=O)c(C(=O)C3C(=O)CCCC3=O)nc3c(Cl)cccc32)cc1` [fenquinotrione], for which the “Control effect (%)” value runs as follows: (Lolium multiflorum, soil (S), B 1.5 g a.i./mu) 28.6%; (Lolium multiflorum, soil (S), B 3 g a.i./mu) 44.1%.
With `CCN(C(=O)n1nnn(-c2ccccc2Cl)c1=O)C1CCCCC1` [fentrazamide], the pest or weed control at 240 g/ha under setting [12] stood at 32.5%. In addition, the pest or weed control at 480 g/ha under setting [13] came out at 50.8%.
Consider `CC(C)N(C(=O)COc1nnc(C(F)(F)F)s1)c1ccc(F)cc1` [flufenacet], for which, under setting [14], the pest or weed control at 90 g/ha is 29.8%. Besides, the pest or weed control at 180 g/ha under setting [15] was determined as 37.5%.
As for `C#CCN1C(=O)COc2cc(F)c(N3C(=O)C4=C(CCCC4)C3=O)cc21` [flumioxazin], the pest or weed control at 7.5 g/ha under setting [1] amounted to 32.8%. For the same molecule, the pest or weed control at 15 g/ha under setting [2] came out at 45.1%.
For `O=C1C(Cl)C(CCl)CN1c1cccc(C(F)(F)F)c1` (stereo not shown) [flurochloridone], the pest or weed control at 60 g/ha (Veronica polita, Veronica didyma, soil (S), B 4 g a.i./mu, read-out: Control effect (%) of B applied alone (B)) is 45.1%. For the same molecule, the pest or weed control at 120 g/ha (Veronica polita, Veronica didyma, soil (S), B 8 g a.i./mu, read-out: Control effect (%) of B applied alone (B)) amounted to 60.8%.
Consider `COc1cc(OC)nc(NC(=O)NS(=O)(=O)c2c(C(=O)O)c(Cl)nn2C)n1` [halosulfuron], for which, under “Veronica polita, Veronica didyma, soil (S), B 0.5 g a.i./mu, read-out: Control effect (%) of B applied alone (B)”, the pest or weed control at 7.5 g/ha is 34.8%. Besides, where the note is “Veronica polita, Veronica didyma, soil (S), B 1 g a.i./mu, read-out: Control effect (%) of B applied alone (B)”, the pest or weed control at 15 g/ha is 54.6%.
On to `COCc1cnc(C2=NC(C)(C(C)C)C(=O)N2)c(C(=O)O)c1` (stereo not shown) [imazamox], for which, under setting [16], the pest or weed control at 6 g/ha was 25.4% and the pest or weed control at 12 g/ha was 42.7%.
As for `CCc1cnc(C2=NC(C)(C(C)C)C(=O)N2)c(C(=O)O)c1` (stereo not shown) [imazethapyr], the pest or weed control at 15 g/ha under setting [2] is 33.4%. The pest or weed control at 30 g/ha under setting [3] came out at 43.8%.
For `CC(C)N(C(=O)n1cnn(-c2ccc(Cl)cc2Cl)c1=O)c1ccc(F)cc1F` [ipfencarbazone], the “Control effect (%)” value is listed as 41.5% under setting [10] and 57.6% under setting [11].
